How the values were obtained:
MDA-MB-231BR cells = assay: Intracranial MDA-MB-231BR tumor model in vivo; set-up: species or system Nu/Nu mice
Description: Intracranial injections were performed as previously described ([Ciraku et al., 2021]). Briefly, Nu/Nu or BalbC female 4–6 week old mice from Charles River Laboratories (Wilmington, MA, United States) were immobilized using the Just for Mice ™ Stereotaxic Frame (Harvard Apparatus, Holliston, MA, United States) and injected intracranially with 5 μL of a 20,000 cells/μL solution of MDA-MB-231BR or 4T1BR cells stably expressing luciferase. Mice were injected intraperitoneally with 30 mg/kg of Dluciferin solution (Caliper Life Sciences, Hopkinton, MA) and results analyzed using Living Image software (Caliper Life Sciences, Waltham, MA, United States). For in vivo analog trials, mice were weighed daily and injected intraperitoneally with 50 mg/kg of AD-8007. Mice were euthanized 3 weeks after injection following survivial or at the end of drug treatment at indiciated day. The animal study was reviewed and approved by the Institutional Animal Care and Use Committee.
Brains were dissected, fixed in 4% formalin and prepared for processing/sectioning/embedding/blocking to generate paraffin embedded slides. The slides containing brain metastatic tumors were deparaffinized by Xylene and subsequent rehydration was done by decreasing concentrations of ethanol-water mixture. Antigen retrieval was done by citrate buffer immersion and steaming the slides for 45 min. Tissue was treated with 200–400 ul 1% BSA+5% serum PBS solution for 1h. Primary incubation was done at 4 °C overnight using primary antibody anti-FasN (Cell Signaling Technologies, C20G5). Secondary antibody incubation was done for an hour at RT with HRP conjugated Anti-Rabbit Secondary antibody (Cell Signaling Technologies). at 1:100 dilution. For IHC the stain was developed using the DAB kit by Vectastain (Vector Labs, Burlingame, CA, United States). Finally, slides were mounted and imaged under a light microscope. H&E and Ki-67 staining were performed and assessed at TJU, Department of Pathology, Philadelphia, PA by board-certified pathologist.

[1] = test system: MDA-MB-231BR tumor bearing brain slices; assay: Ex vivo tumor-brain slice model with irradiation; set-up: species or system nu/nu mice; settings: 6 days
Description: Ex vivo brain slice tumor model was performed as previously described ([Ciraku et al., 2021]). Briefly, Nu/Nu athymic 4–6 week old mice Charles River Laboratories (Wilmington, MA, United States) were immobilized using the Just for Mice Stereotaxic Frame (Harvard Apparatus, Holliston, MA, United States) and injected intracranially with 5uL of 20,000 cells/uL solution of luciferase tagged MDA-MB-231BR or 4T1BR cells. Tumor growth was monitored via bioluminescence imaging on the IVIS system (Perkin Elmer, Waltman, MA, United States). Organotypic hippocampal cultures were prepared as described previously ([Ciraku et al., 2021]). Briefly, adult mice (4–6 weeks) or mice after 12 days following intracranial injection were decapitated and their brains rapidly removed into ice-cold (4°C) sucrose-aCSF composed of the following (in mM): 280 sucrose, 5 KCl, 2 MgCl2, 1 CaCl2, 20 glucose, 10 HEPES, 5 Na^+-ascorbate, 3 thiourea, 2 Na^+-pyruvate; pH = 7.3. […] Tumor growth was monitored via bioluminescence imaging on the IVIS 200 system (Perkin Elmer), and results were analyzed using Living Image software (Caliper Life Sciences, Waltham, MA, United StatesUnited States). […] Tissues were incubated at 37 ℃ , 5% CO2 for 4 h, and absorbance at 490 nm was measured with a Tecan Spark Microplate reader.

FASN = assay: Immunoblot of FASN protein levels; type: cell-based; settings: MDA-MB-231BR cells, 24 h
Description: Immunoblotting protocols have been previously described. Briefly, cell lysates from one to five x 10^6 cells were prepared in radioimmune precipitation assay buffer (150 mM NaCl, 1% NP40, 0.5% DOC, 50 mM Tris HCL at pH 8, 0.1% SDS, 10% glycerol, 5 mM EDTA, 20 mM NaF, and 1 mM Na3VO4) supplemented with 1 μg/mL each of pepstatin, leupeptin, aprotinin, and 200 μg/mL PMSF. Lysates were cleared by centrifugation at 16,000 x g for 15 min at 4°C and analyzed by SDS-PAGE and autoradiography with chemiluminescence. Proteins were analyzed by immunoblotting using primary antibodies indicated above.

ACSS2 = biological target: T1, ACSS2 (Homo sapiens, UniProt Q9NR19); assay: Fluorescence polarization-based ACSS2 biochemical assay (ATP to AMP conversion); settings: 100 nM ACSS2, triplicate, ± SD; read-out: IC50, inhibition of ATP to AMP conversion of ACSS2
T1 construct: His-tag (N); His-tag (C); made in house; host or cells: E. coli BL21 (DE3) RIL
T1 sequence (Q9NR19 whole entry): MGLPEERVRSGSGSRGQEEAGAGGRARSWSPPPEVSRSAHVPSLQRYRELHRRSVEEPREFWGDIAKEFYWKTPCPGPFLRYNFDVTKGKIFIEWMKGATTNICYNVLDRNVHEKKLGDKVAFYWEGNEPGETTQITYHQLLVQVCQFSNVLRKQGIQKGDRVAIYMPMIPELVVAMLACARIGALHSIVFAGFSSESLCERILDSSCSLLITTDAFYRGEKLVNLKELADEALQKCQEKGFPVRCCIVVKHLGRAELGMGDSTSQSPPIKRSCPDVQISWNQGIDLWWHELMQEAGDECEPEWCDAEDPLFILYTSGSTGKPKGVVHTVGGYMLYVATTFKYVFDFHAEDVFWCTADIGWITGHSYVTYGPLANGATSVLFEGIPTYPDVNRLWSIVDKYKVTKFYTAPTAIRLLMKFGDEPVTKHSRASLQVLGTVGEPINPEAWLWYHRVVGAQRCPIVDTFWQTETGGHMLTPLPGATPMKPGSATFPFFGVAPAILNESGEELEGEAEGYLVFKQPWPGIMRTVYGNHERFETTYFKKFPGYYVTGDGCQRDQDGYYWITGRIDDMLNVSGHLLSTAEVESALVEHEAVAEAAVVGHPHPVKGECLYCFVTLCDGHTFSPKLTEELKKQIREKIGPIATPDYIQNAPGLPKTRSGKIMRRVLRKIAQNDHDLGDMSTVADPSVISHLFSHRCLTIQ
Description: ACSS2 enzyme activity was measured using the TranScreener AMP^2/GMP^2 Assay Kit—FP Readout assay (BellBrook Labs). The assay was performed in white, opaque, 96-well plates. […] ACSS2 was used in assay buffer (30 mM HEPES, pH 7.4, 140 mM NaCl, 2 mM MgCl2, 5 mM sodium acetate, 2 mM DTT, 0.05% CHAPS). Substrate mix was added, followed by a 60-min incubation. Final substrate concentrations were 5 mM acetate, 50 μM ATP, and 5 μM CoA. After incubation, conjugated AMP antibody and AMP tracer were added according to the methods described by BellBrook Labs. After 30 min, the FP signal was measured using a Tecan Spark multimode microplate reader. In the analysis, data were normalized to represent the percentage inhibition of ATPase activity.

## N[C@H](C(=O)N1CCCC(c2ccccc2)(c2ccccc2)C1)C1CC1 [AD-8007]
MDA-MB-231BR cells; MDA-MB-231BR intracranial, 50 mg/kg daily, 14 days
  tumor burden (bioluminescence): significantly reduced tumor burden
MDA-MB-231BR cells; MDA-MB-231BR intracranial, 14 days post treatment
  tumor burden and proliferation via H&E and Ki67 staining: reduction in tumor burden and proliferation
MDA-MB-231BR cells; MDA-MB-231BR intracranial, drug withdrawn after treatment, Kaplan Meyer
  survival: significantly extended surivial
MDA-MB-231BR cells; MDA-MB-231BR tumors, 14 days treatment, IHC
  FASN staining in tumors: reduced expression of FASN staining
MDA-MB-231BR cells; immunodeficient mice, 50 mg/kg daily, 14 days
  body weight: did not cause significant weight lost
[1]; 20 μM plus one dose of 6 Gy
  preformed BCBM tumors ex vivo, combination with radiation: significantly reduced preformed BCBM tumors
[1]; suboptimal dose 20 µM, no irradiation
  BCBM cell growth ex vivo, drug alone: little effect on BCBM cell growth
FASN
  protein levels of FASN: reduced protein levels of FASN
ACSS2
  IC50: 890 ± 290 nM

— publication PMC11137182, “Selective and brain-penetrant ACSS2 inhibitors target breast cancer brain metastatic cells” (Frontiers in Pharmacology, 2024)
